Values of other authors as cited in patent US9358210B2, “Sustained-release pellets containing tacrolimus as an active ingredient” (priority 2010, dated 2016).

In the case of `C=CC[C@@H]1/C=C(\C)C[C@H](C)C[C@H](OC)[C@H]2O[C@@](O)(C(=O)C(=O)N3CCCC[C@H]3C(=O)O[C@H](/C(C)=C/[C@@H]3CC[C@@H](O)[C@H](OC)C3)[C@H](C)[C@@H](O)CC1=O)[C@H](C)C[C@@H]2OC` [tacrolimus, 17-allyl-1,14-dihydroxy-12-[2-(4-hydroxy-3-methoxycyclohexyl)-1-methylvinyl]-23,25-dimethoxy-13,19,21,27-tetramethyl-11,28-dioxa-4-azatricyclo[22.3.1.0]octacos-18-ene-2,3,10,16-tetraone], the solubility in water is given as 1 to 2 µg/mL.
